From US7250438B2, “Anti-bacterial and anti-cancer spiro beta-lactone/gamma-lactams” (Nereus Pharmaceuticals, Inc., priority 2004, dated 2007) come the findings set out here.

Series [1] can be described thus: Qualitative solubility of the isolated compound. The format is physicochemical. The settings on record: CHCl3, MeOH, and DMSO.
Series [2] concerns E. coli - imp. As to the kind of experiment: MIC, serial micro broth dilution (NCCLS M7-A5). It is filed as cell-based. The settings on record: Escherichia coli, 18 h. Here is the method: (§1) Minimum inhibitory concentrations (MICs) were determined according to the National Committee for Clinical Laboratory Standards (NCCLS) susceptibility test guideline M7-A5 to quantify the anti-microbial activity of the compound of Formula (VI) against both gram-positive and gram-negative bacteria. Ferraro, M. 2001 Methods for Dilution Antimicrobial Susceptibility Tests for Bacteria that Grow Aerobically; Approved Standard (NCCLS), Villanova, which is incorporated herein by reference in its entirety. The serial micro broth dilution method used BBL Mueller-Hinton broth (cation adjusted) except for the […] which was tested in BBL Mueller-Hinton broth II (cation adjusted) with lysed horse blood. The final bacterial inoculum contained approximately 5×10^5 CFU/ml and was run on microtiter plates. The volume of each well was 100 μl and the plates were incubated at 35° C. for 18 hours. The MIC was defined as the lowest drug concentration that prevented visible growth of the bacterium. The compound was active versus several microorganisms, especially gram-positive species.

Series [3] deals with Streptococcus pneumoniae - penicillin resistant. As to the kind of experiment: MIC, serial micro broth dilution (NCCLS M7-A5). The format is cell-based. The conditions noted are these: Mueller-Hinton broth II with lysed horse blood, 35° C., 18 hours. How it is done:
as §1

The subject of series [4] is E. faecalis - Van^s. As to the kind of experiment: MIC, serial micro broth dilution (NCCLS M7-A5). It is filed as cell-based. The conditions noted are these: Enterococcus faecalis, Mueller-Hinton broth, 35° C., 18 hours. How it is done:
as §1

Series [5] deals with Streptococcus pneumoniae - penicillin sensitive. As to the kind of experiment: MIC, serial micro broth dilution (NCCLS M7-A5). It is filed as cell-based. The conditions noted are these: Mueller-Hinton broth II with lysed horse blood, 35° C., 18 hours. How it is done:
as §1

Series [6] relates to E. faecium - Van^r. As to the kind of experiment: MIC, serial micro broth dilution (NCCLS M7-A5). The conditions noted are these: Enterococcus faecium, Mueller-Hinton broth, 35° C., 18 hours. The format is cell-based. How it is done:
as §1

Series [7] has as its system Staphylococcus aureus - MRSA. As to the kind of experiment: MIC, serial micro broth dilution (NCCLS M7-A5). The settings on record: Mueller-Hinton broth, 35° C., 18 hours. The format is cell-based. Here is the method:
as §1

The test system of series [8] is Staphylococcus aureus - MSSA. The series is described as follows: MIC, serial micro broth dilution (NCCLS M7-A5). The format is cell-based. The settings on record: Mueller-Hinton broth, 35° C., 18 hours. Here is the method:
as §1

In series [9] the test system is B16-F10 cells. As to the kind of experiment: Growth inhibition of murine melanoma B16-F10 cells (Resazurin). The format is cell-based. The settings on record: Mus musculus, 48 hours of drug exposure. Here is the method: B16-F10 (ATCC; CRL-6475) a murine melanoma cell line was maintained in complete Dulbecco's Modification of Eagle's Medium (DMEM) (DMEM supplemented with 10% (v/v) Fetal bovine serum, 2 mM glutamine, 10 mM HEPES and Penicillin/Streptomycin at 100 IU/ml and 100 μg/ml respectively). The cells were cultured in an incubator at 37° C, 5% CO2 and 95% humidified air.
For cell growth inhibition assays, B16-F10 cells were seeded at 1.25×10^3 cells/well in 90 μl complete media into Coming 3904 black-walled, clear-bottom tissue culture plates and the plates were incubated overnight to allow cells to establish and enter log phase growth. 20mM stock solutions of the compound of Formula (VI) were prepared in 100% DMSO. 10× concentrated serial dilutions of the compound of Formula (VI) were prepared in appropriate culture medium. […]
Following 48 hours of drug exposure, 10 μl of 0.2 mg/ml Resazurin (obtained from Sigma-Aldrich Chemical Co.) in Mg^2+, Ca^2+ free phosphate buffered saline was added to each well and the plates were returned to the incubator for 3–6 hours. Since living cells metabolize Resazurin, the fluorescence of the reduction product of Resazurin was measured using a Fusion microplate fluorometer (Packard Bioscience) with λex=535 nm and λem=590 nm filters. […]

pEC50: −log10 of the molar value.

For `COC(CC(C)C(O)/C=C/C=C/CNC(=O)C(C)(C)C(O)\C(C)=C/C=C\C=C\C(C)=C(/C)[N+](=O)[O-])C1(O)C(C)C(=O)N(C)C12C(=O)OC2C` (stereo not drawn) [Formula (VI)], the “solubility (qualitative)” value in [1] was “qualitatively soluble in CHCl3, MeOH, and DMSO”. Further, the MIC worked out at 12 µg/mL in series [2]; 1.5 µg/mL in series [3]; 14 µg/mL in series [4]; 2 µg/mL in series [5]; 20 µg/mL in series [6]; 5 µg/mL in series [7]. For the same compound, the MIC in series [8] came out at 4 µg/mL. Moreover, in [9], the pEC50 was 5.02.
